Assay [1] concerns the target T1, human B1R (bradykinin receptor 1) (Homo sapiens, UniProt P46663).
T1 construct: expressed in transfected cells; host or cells: CHO K1 cells
T1 sequence (P46663 1-353): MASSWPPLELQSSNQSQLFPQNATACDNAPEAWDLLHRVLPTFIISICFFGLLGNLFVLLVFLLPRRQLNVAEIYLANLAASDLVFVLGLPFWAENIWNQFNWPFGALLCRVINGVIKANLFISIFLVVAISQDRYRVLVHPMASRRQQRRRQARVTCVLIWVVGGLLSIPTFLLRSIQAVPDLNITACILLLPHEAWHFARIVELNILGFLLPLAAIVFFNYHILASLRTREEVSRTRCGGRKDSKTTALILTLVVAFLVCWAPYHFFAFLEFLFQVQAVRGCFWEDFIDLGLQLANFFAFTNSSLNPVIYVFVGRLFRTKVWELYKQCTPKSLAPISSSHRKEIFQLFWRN
Nature of the assay: FLIPR Ca2+ assay (Fluo-4) on CHO K1 cells stably transfected with the human B1R gene (hB1R cells): % inhibition at 10 μM / IC50, agonist Lys-Des-Arg9-bradykinin. The format is cell-based. The settings on record: for inhibition at 10 µM: CHO-K1, human B1R. In outline: (§1)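 Peak fluorescence counts read on FLIPR (λex 488, λem 540 nm) after two additions: compound first, then agonist at EC80 after 10–20 min. Human line challenged with Lys-Des-Arg9-bradykinin, rat line with Des-Arg9-bradykinin. Suppression of Ca2+ inflow expressed as % of maximum inhibition.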

The target in assay [2] is T2, rat B1R (bradykinin receptor 1) (Rattus norvegicus, UniProt P97583).
T2 construct: expressed in transfected cells; host or cells: CHO K1 cells
T2 sequence (P97583 1-337): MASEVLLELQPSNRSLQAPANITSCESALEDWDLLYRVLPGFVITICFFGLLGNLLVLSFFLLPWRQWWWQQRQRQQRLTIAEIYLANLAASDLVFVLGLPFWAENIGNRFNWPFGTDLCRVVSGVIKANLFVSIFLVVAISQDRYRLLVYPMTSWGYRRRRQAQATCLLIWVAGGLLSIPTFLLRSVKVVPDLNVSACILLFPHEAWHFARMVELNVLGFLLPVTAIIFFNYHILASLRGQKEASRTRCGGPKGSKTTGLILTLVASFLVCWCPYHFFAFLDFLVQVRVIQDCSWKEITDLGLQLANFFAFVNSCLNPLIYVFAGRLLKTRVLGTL
Nature of the assay: FLIPR Ca2+ assay (Fluo-4) on CHO K1 cells stably transfected with the B1R gene of the rat (rB1R cells): % inhibition at 10 μM / IC50, agonist Des-Arg9-bradykinin. The format is cell-based. The settings on record: for inhibition at 10 µM: CHO-K1, rat B1R. An outline of the steps:
as §1

The values below come from US8455475B2 (Gruenenthal GmbH, priority 2009, dated 2013).

For orientation: inhibition means the change of the read-out against control, counted positive when it falls. On to `COc1cc(C)c(S(=O)(=O)N[C@H]2CCCc3ccc(C(=O)N4CCC5(CC4)CCN(c4ccncc4)CC5)cc32)c(C)c1` [Example H-19, 4-methoxy-2,6-dimethyl-N-[(1S)-7-(9-pyridin-4-yl-3,9-diazaspiro[5.5]undecane-3-carbonyl)-1,2,3,4-tetrahydro-naphthalen-1-yl]-benzenesulfonic acid amide], for which the inhibition at 10 µM in assay [1] was 99%; in assay [2], 102%.
For `O=C(N[C@H]1CCCc2ccc(C(=O)N3CCC4(CCN(c5ccncc5)CC4)C3)cc21)c1ccccc1Cl` [Example H-12, 2-chloro-N-[(1S)-7-(8-pyridin-4-yl-3,8-diazaspiro[4.5]decane-3-carbonyl]-1,2,3,4-tetrahydro-naphthalen-1-yl]-benzamide] the same measures were 97% and 102%.
In the case of `O=C(/C=C/c1ccccc1Cl)NC1CCc2ccc(C(=O)N3CCC4(CCN(c5ccncc5)CC4)C3)cc21` (centres unmarked) [Ind_CC-083, (E)-3-(2-chlorophenyl)-N-[6-(8-pyridin-4-yl-2,8-diazaspiro[4.5]decane-2-carbonyl)-2,3-dihydro-1H-inden-1-yl]-acrylamide], the inhibition at 10 µM turned out to be 90% in assay [1] and 85% in assay [2].
For `O=C(NC1CCc2ccc(C(=O)N3CCC4(CC3)CCN(c3ccncc3)CC4)cc21)c1ccc(Cl)s1` (centres unmarked) [Ind_CC-005, 5-chloro-N-[6-(9-pyridin-4-yl-3,9-diazaspiro[5.5]undecane-3-carbonyl)-2,3-dihydro-1H-inden-1-yl]-thiophene-2-carboxylic acid amide] the same measures were 97% and 98%.
The corresponding values for `COc1cc(C)c(C(=O)NC2CCc3ccc(C(=O)N4CCC5(CC4)CCN(c4ccncc4)C5)cc32)c(C)c1` (centres unmarked) [Ind_CC-094, 4-methoxy-2,6-dimethyl-N-[6-(2-pyridin-4-yl-2,8-diazaspiro[4.5]decane-8-carbonyl)-2,3-dihydro-1H-inden-1-yl]-benzamide] are 42% and 65%.
On to `O=C(NC1CCc2ccc(C(=O)N3CCC4(CC3)CCN(c3ccncc3)C4)cc21)c1c(Cl)cccc1Cl` (centres unmarked) [IND_CC-270, 2,6-Dichloro-N-[6-(2-pyridin-4-yl-2,8-diazaspiro[4.5]decane-8-carbonyl)-2,3-dihydro-1H-inden-1-yl]-benzamide], for which the inhibition at 10 µM worked out at 100% in assay [1] and 108% in assay [2].
As for `O=C(NC1CCc2ccc(C(=O)N3CCC4(CCN(c5ncc(C(F)(F)F)cn5)CC4)C3)cc21)c1ccccc1Cl` (centres unmarked) [Example H-130, 2-Chloro-N-[6-[8-[5-(trifluoromethyl)-pyrimidin-2-yl]-3,8-diazaspiro[4.5]decane-3-carobnyl]-2,3-dihydro-1H-inden-1-yl]-benzamide], the inhibition at 10 µM in assay [1] worked out at 94%; in assay [2] it was 99%.
For `CN(C)C1(c2ccc(F)cc2)CCC2(CCN(C(=O)c3ccc4c(c3)C(NC(=O)c3sccc3Cl)CC4)CC2)CC1` (centres unmarked) [Ind_CC-105, 3-chloro-N-[6-[9-dimethylamino-9-(4-fluorophenyl)-3-azaspiro[5.5]undecane-3-carbonyl]-2,3-dihydro-1H-inden-1-yl]-thiophene-2-carboxylic acid amide], the figures for the inhibition at 10 µM in assay [1] and in assay [2] were 61% and 86%, respectively.
The corresponding values for `CC1(C)CC(NC(=O)c2ccccc2Cl)c2cc(C(=O)N3CCC4(CC3)CCN(c3ccncc3)CC4)ccc21` (centres unmarked) [IND_CC-292, 2-Chloro-N-[3,3-dimethyl-6-(3-pyridin-4-yl-3,9-diazaspiro[5.5]undecane-9-carbonyl)-1,2-dihydro-inden-1-yl]-benzamide] are 99% and 105%.
In the case of `O=C(NC1CCc2ccc(C(=O)N3CCC4(CC3)CCN(c3ccncc3)C4)cc21)c1ccc(Cl)cc1Cl` (centres unmarked) [Ind_CC-044, 2,4-dichloro-N-[6-(2-pyridin-4-yl-2,8-diazaspiro[4.5]decane-8-carbonyl)-2,3-dihydro-1H-inden-1-yl]-benzamide], the inhibition at 10 µM in assay [1] stood at 97%; in assay [2] it was 100%.
For `O=C(N[C@@H]1CCCc2ccc(C(=O)N3CCC4(CC3)CCN(c3ccncc3)CC4)cc21)c1ccccc1Cl` [Example H-09, 2-chloro-N-[(1R)-7-(9-pyridin-4-yl-3,9-diazaspiro[5.5]undecane-3-carbonyl)-1,2,3,4-tetrahydro-naphthalen-1-yl]-benzamide] the same measures were 100% and 102%.
For `O=C(c1ccc2c(c1)CC[C@H]2NS(=O)(=O)c1ccccc1Cl)N1CCC2(CCN(c3ccncc3)CC2)C1` [Example H-173, 2-Chloro-N-[(1R)-5-(8-pyridin-4-yl-3,8-diazaspiro[4.5]decane-3-carbonyl)-2,3-dihydro-1H-inden-1-yl]-benzenesulfonic acid amide] the same measures were 100% and 89%.
As for `O=C(NC1CCc2ccc(C(=O)N3CCC4(CCN(c5ccncc5)CC4)C3)cc21)c1ccccc1C(F)(F)F` (centres unmarked) [Ind_CC-081, N-[6-(8-pyridin-4-yl-3,8-diazaspiro[4.5]decane-3-carbonyl)-2,3-dihydro-1H-inden-1-yl]-2-(trifluoromethyl)-benzamide], the inhibition at 10 µM in assay [1] was 99%; in assay [2], 101%.
On to “2-Chloro-N-[6-(2-pyridin-4-yl-2,8-diazaspiro[4.5]decane-8-carbonyl)-2,3-dihydro-1H-inden-1-yl]-6-(trifluoromethyl)-benzamide [IND_CC-205]”, for which, in assay [1] (human B1R), the “% Inhibition (human B1R) at 10 μM” value turned out to be 100%. For the same molecule, the “% Inhibition (rat B1R) at 10 μM” value in assay [2] (rat B1R) amounted to 103%.
Take `O=C(N[C@@H]1CCc2cc(C(=O)N3CCC4(CC3)CCN(c3ccncc3)CC4)ccc21)c1ccccc1Cl` [Example H-172, 2-chloro-N-[(1R)-5-(9-pyridin-4-yl-3,9-diazaspiro[5.5]undecane-3-carbonyl)-2,3-dihydro-1H-inden-1-yl]-benzamide]: the inhibition at 10 µM in assay [1] was found to be 99%; in assay [2], 105%.
For `O=C(c1ccc2c(c1)C(N(C(=O)c1ccccc1Cl)C1CC1)CC2)N1CCC2(CCN(Cc3ccncc3)CC2)CC1` (centres unmarked) [Ind_CC-116, 2-chloro-N-cyclopropyl-N-[6-[9-(pyridin-4-yl-methyl)-3,9-diazaspiro[5.5]undecane-3-carbonyl]-2,3-dihydro-1H-inden-1-yl]-benzamide] the same measures were 68% and 77%.
Turning to `O=C(N[C@@H]1CCc2ccc(C(=O)N3CCC4(CCC(c5cccnc5)CC4)C3)cc21)c1ccccc1Cl` (stereo partly drawn) [Example H-135, 2-Chloro-N-[(1R)-6-(8-pyridin-3-yl-3-azaspiro[4.5]decane-3-carbonyl)-2,3-dihydro-1H-inden-1-yl]-benzamide], the inhibition at 10 µM in assay [1] came out at 80%; in assay [2] it was 101%.
The corresponding values for `COc1cc(C)c(C(=O)N[C@@H]2CCc3ccc(C(=O)N4CCC5(CCN(c6ccncc6)CC5)C4)cc32)cc1C` [Example H-103, 4-Methoxy-2,5-dimethyl-N-[(1R)-6-(8-pyridin-4-yl-3,8-diazaspiro[4.5]decane-3-carbonyl)-2,3-dihydro-1H-inden-1-yl]-benzamide] are 99% and 106%.
For `COc1ccc(C(=O)NC2CCc3ccc(C(=O)N4CCC5(CC4)CCN(c4ccncc4)C5)cc32)c(Cl)c1` (centres unmarked) [IND_CC-212, 2-Chloro-4-methoxy-N-[6-(2-pyridin-4-yl-2,8-diazaspiro[4.5]decane-8-carbonyl)-2,3-dihydro-1H-inden-1-yl]-benzamide] the same measures were 58% and 102%.
In the case of `Cc1cc(OC(F)(F)F)ccc1C(=O)N[C@@H]1CCc2ccc(C(=O)N3CCC4(CC3)CCN(c3ccncc3)C4)cc21` [Example H-75, 2-Methyl-N-[(1R)-6-(3-pyridin-4-yl-3,8-diazaspiro[4.5]decane-8-carbonyl)-2,3-dihydro-1H-inden-1-yl]-4-(trifluoromethyloxy)-benzamide], the inhibition at 10 µM in assay [1] came out at 29%; in assay [2], 64%.
For `O=C(NC1CCc2ccc(C(=O)N3CCC4(CC3)CCN(c3ccc(F)cc3)CC4)cc21)c1ccccc1Cl` (centres unmarked) [Ind_CC-097, 2-chloro-N-[6-[9-(4-fluorophenyl)-3,9-diazaspiro[5.5]undecane-3-carbonyl]-2,3-dihydro-1H-inden-1-yl]-benzamide] the same measures were 33% and 90%.
With `O=C(N[C@@H]1CCc2ccc(C(=O)N3CCC4(CCN(c5ccncc5)CC4)C3)cc21)c1c(F)cccc1C(F)(F)F` [Example H-110, 2-Fluoro-N-[(1R)-6-(8-pyridin-4-yl-3,8-diazaspiro[4.5]decane-3-carbonyl)-2,3-dihydro-1H-inden-1-yl]-6-(trifluoromethyl)-benzamide], the inhibition at 10 µM in assay [1] was determined as 101%; in assay [2], 108%.
